In PubChem BioAssay (NCI):
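Tested at 5 concentrations; 48 h exposure; 96-well plates; endpoints linearly interpolated, else capped at highest concentration. TGI is the concentration that stops growth completely.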

Assays:
Assay in all cases: DTP human tumour cell line panel, 48 h
[1] = tested on: HOP-18 NSCLC
[2] = tested on: SNB-78 CNS
[3] = tested on: XF 498 CNS
[4] = tested on: A549 NSCLC
[5] = tested on: OVCAR-5 ovarian
[6] = tested on: UACC-62 melanoma
[7] = tested on: HT29 colon
[8] = tested on: DMS 114 small cell lung
[9] = tested on: SK-MEL-2 melanoma
[10] = tested on: SNB-75 CNS
[11] = tested on: IGROV1 ovarian
[12] = tested on: SF-539 CNS
[13] = tested on: A498 renal
[14] = tested on: RPMI-8226 leukemia
[15] = tested on: SNB-19 CNS
[16] = tested on: DMS 273 small cell lung
[17] = tested on: 786-0 renal
[18] = tested on: DLD-1 colon
[19] = tested on: EKVX NSCLC
[20] = tested on: NCI-H460 lung
[21] = tested on: CAKI-1 renal
[22] = tested on: KM20L2 colon
[23] = tested on: TK-10 renal
[24] = tested on: ACHN renal
[25] = tested on: M19-MEL melanoma
[26] = tested on: K-562 leukemia
[27] = tested on: KM12 colon
[28] = tested on: RXF-631 renal
[29] = tested on: NCI-H226 lung
[30] = tested on: SF-268 CNS
[31] = tested on: HOP-62 NSCLC
[32] = tested on: SW-620 colon
[33] = tested on: OVCAR-8 ovarian
[34] = tested on: OVCAR-3 ovarian
[35] = tested on: UACC-257 melanoma
[36] = tested on: HCT-116 colon
[37] = tested on: HL-60(TB) leukemia
[38] = tested on: SF-295 CNS
[39] = tested on: M14 melanoma
[40] = tested on: LXFL 529 NSCLC
[41] = tested on: MOLT-4 leukemia
[42] = tested on: NCI-H23 lung
[43] = tested on: CCRF-CEM leukemia
[44] = tested on: UO-31 renal
[45] = tested on: SR leukemia
[46] = tested on: SK-MEL-5 melanoma
[47] = tested on: SK-MEL-28 melanoma
[48] = tested on: HCT-15 colon
[49] = tested on: LOX IMVI melanoma
[50] = tested on: OVCAR-4 ovarian
[51] = tested on: MALME-3M melanoma
[52] = tested on: RXF 393 renal
[53] = tested on: HCC-2998 colon
[54] = tested on: SN12C renal
[55] = tested on: SK-OV-3 ovarian
[56] = tested on: COLO 205 colon
[57] = tested on: U251 CNS
[58] = tested on: HOP-92 NSCLC
[59] = tested on: NCI-H522 lung

In the case of `CCOC(=O)NC(=O)c1cn(C2OC(COC(=O)CCCCCCCCC(=O)OCC3OC(n4cc(C(=O)NC(=O)OCC)c(=O)[nH]c4=O)C(O)C3O)C(O)C2O)c(=O)[nH]c1=O` (stereo not drawn), the TGI [1] is reported as greater than 100 µM, the TGI [2] is reported as greater than 100 µM and the TGI [3] is reported as greater than 100 µM. It also gave a TGI [4] greater than 100 µM, a TGI [5] greater than 100 µM and a TGI [6] greater than 100 µM. For the same compound, the TGI [7] was greater than 100 µM, the TGI [8] was greater than 100 µM and the TGI [9] was greater than 100 µM. It also gave a TGI [10] greater than 100 µM, a TGI [11] greater than 100 µM and a TGI [12] greater than 100 µM. It also gave a TGI [13] greater than 100 µM, a TGI [14] greater than 100 µM and a TGI [15] greater than 100 µM. The TGI [16] was greater than 100 µM, the TGI [17] was greater than 100 µM and the TGI [18] was greater than 100 µM. The TGI [19] was greater than 100 µM, the TGI [20] was greater than 100 µM and the TGI [21] was greater than 100 µM. The TGI [22] was greater than 100 µM, the TGI [23] was greater than 100 µM and the TGI [24] was greater than 100 µM. For the same compound, the TGI [25] was greater than 100 µM, the TGI [26] was greater than 100 µM and the TGI [27] was greater than 100 µM. The TGI [28] was greater than 100 µM, the TGI [29] was greater than 100 µM and the TGI [30] was greater than 100 µM. For the same compound, the TGI [31] was greater than 100 µM, the TGI [32] was greater than 100 µM and the TGI [33] was greater than 100 µM. For the same compound, the TGI [34] was greater than 100 µM, the TGI [35] was greater than 100 µM and the TGI [36] was greater than 100 µM. The TGI [37] was greater than 100 µM, the TGI [38] was greater than 100 µM and the TGI [39] was greater than 100 µM. The TGI [40] was greater than 100 µM, the TGI [41] was greater than 100 µM and the TGI [42] was greater than 100 µM. For the same compound, the TGI [43] was greater than 100 µM, the TGI [44] was greater than 100 µM and the TGI [45] was greater than 100 µM. The TGI [46] was greater than 100 µM, the TGI [47] was greater than 100 µM and the TGI [48] was greater than 100 µM. It also gave a TGI [49] greater than 100 µM, a TGI [50] greater than 100 µM and a TGI [51] greater than 100 µM. For the same compound, the TGI [52] was greater than 100 µM, the TGI [53] was greater than 100 µM and the TGI [54] was greater than 100 µM.

`COc1ccc(CNc2cc(OC)c(OC)c(OC)c2)cc1` was tested, and the TGI [1] was greater than 94.6 µM, the TGI [2] was 32.9 µM and the TGI [3] was greater than 100 µM. It also gave a TGI [4] greater than 100 µM, a TGI [5] greater than 83.7 µM and a TGI [6] greater than 100 µM. It also gave a TGI [7] greater than 100 µM, a TGI [8] of 9.19 µM and a TGI [9] greater than 100 µM. For the same compound, the TGI [55] was greater than 90.5 µM, the TGI [10] was 97.1 µM and the TGI [11] was greater than 100 µM. It also gave a TGI [12] of 35.1 µM, a TGI [13] greater than 83.4 µM and a TGI [14] of 83.1 µM. It also gave a TGI [15] greater than 100 µM, a TGI [16] greater than 100 µM and a TGI [17] greater than 100 µM. For the same compound, the TGI [18] was greater than 100 µM, the TGI [19] was 98.9 µM and the TGI [20] was greater than 30 µM. The TGI [21] was greater than 100 µM, the TGI [56] was 9.34 µM and the TGI [22] was greater than 23.7 µM. It also gave a TGI [23] greater than 100 µM, a TGI [24] greater than 100 µM and a TGI [25] greater than 100 µM. The TGI [26] was greater than 44.4 µM, the TGI [27] was greater than 41.7 µM and the TGI [28] was greater than 100 µM. It also gave a TGI [29] greater than 62.1 µM, a TGI [30] of 28.6 µM and a TGI [31] greater than 71.5 µM. The TGI [32] was greater than 100 µM, the TGI [33] was greater than 100 µM and the TGI [34] was greater than 48.5 µM. For the same compound, the TGI [35] was greater than 100 µM, the TGI [36] was greater than 42.4 µM and the TGI [37] was greater than 24.5 µM. It also gave a TGI [38] greater than 55.1 µM, a TGI [39] greater than 100 µM and a TGI [40] greater than 100 µM. For the same compound, the TGI [41] was greater than 77.8 µM, the TGI [42] was greater than 55.9 µM and the TGI [43] was greater than 100 µM. It also gave a TGI [44] greater than 94.6 µM, a TGI [45] greater than 100 µM and a TGI [57] of 24.3 µM. The TGI [46] was 14.6 µM, the TGI [47] was greater than 100 µM and the TGI [48] was greater than 100 µM. For the same compound, the TGI [49] was greater than 100 µM, the TGI [58] was greater than 100 µM and the TGI [50] was 85.1 µM. For the same compound, the TGI [59] was 31 µM, the TGI [51] was greater than 100 µM and the TGI [52] was 23 µM. For the same compound, the TGI [53] was 32.3 µM and the TGI [54] was greater than 100 µM.
